# Patent US20040023983A1, “Methods of use of fluoroquinolone compounds against pathogenic helicobacter bacteria” (priority 2003, published 2004)
# How the values were obtained:
# H. pylori = experiment: NCCLS agar dilution MIC, 21 H. pylori strains; format: cell-based, Helicobacter pylori; settings: 21 isolates of H. pylori, read at 72 hours; for MIC50 / MIC90: Helicobacter pylori
# From the text: (§1) The aim of the present invention is to evaluate the susceptibility of H. pylori to the new fluoroquinolone gemifloxacin (SB-265805). Twenty-one (21) H. pylori strains were obtained, including 16 clinical isolates CCUG 39297, CCUG 30988 (Lelwala-Guruge, J., Ljungh, A., & Wadstrom, T. 1992. APMIS 100, 908-13), CCUG 17875 (Lelwala-Guruge, J., Ljungh, A., & Wadstrom, T. 1992. APMIS 100, 908-13; Ilver, D., Arnqvist, A., Ogren, J., Frick, I. M., Kersulyte, D., Incecik, E. T. et al. 1998. Science 279, 373-7), CCUG 38771, CCUG 15818, CCUG 17874 (Lelwala-Guruge, J., Ljungh, A., & Wadstrom, T. 1992. APMIS 100, 908-13; O'Toole, P. W., Logan, S. M., Kostrzynska, M., Wadström, T., & Trust, T. J. 1991. Journal of Bacteriology 173, 505-513), CCUG 19087, CCUG 30987 (Lelwala-Guruge, J., Ljungh, A., & Wadstrom, T. 1992. APMIS 100, 908-13), CCUG 38772, CCUG 18943, CCUG 18295, CCUG 36718, CCUG 36719, CCUG 35899, CCUG 36720, CCUG 39924; and laboratory strains Not18, Not34, ATCC 43504, SS1, and ATCC 700392/26695. These strains include gastric biopsy isolates from the USA, Sweden, France, Belgium, UK, South Africa, and Australia Two of the clinical isolates are reported to have the cagA^+ genotype (strains CCUG 17874 and CCUG 17875) and three to be cagA^− (strains CCUG 36720, CCUG 36719, and CCUG 30988), but the cag genotype of the rest is unknown. […] The activities of amoxycillin, tetracycline and metronidazole against H. pylori ATCC 43504 were also tested as controls. The agar plates were inoculated using a Steers replicator and read at 72 hours.
# H. pylori ATCC 43504 = experiment: NCCLS agar dilution MIC, control antibiotics against quality control strain; format: cell-based; settings: Helicobacter pylori, ATCC43504, read at 72 hours
# From the text: as §1
MIC Range (H. pylori),MIC50 (H. pylori),MIC90 (H. pylori),MIC (H. pylori ATCC 43504),Structure (SMILES)
0.03 to 1.0 µg/mL,0.06 µg/mL,0.13 µg/mL,,"CO/N=C1\CN(c2nc3c(cc2F)c(=O)c(C(=O)O)cn3C2CC2)CC1CN (racemic) [Gemifloxacin, (R,S)-7-(3-aminomethyl-4-methoxyiminopyrrolidin-1-yl)-1-cyclopropyl-6-fluoro-4-oxo-1,4-dihydro-1,8-naphthyridine-3-carboxylic acid]"
0.03 to 0.5 µg/mL,0.13 µg/mL,0.13 µg/mL,,COc1c(N2CCNC(C)C2)c(F)cc2c(=O)c(C(=O)O)cn(C3CC3)c12 (stereo not drawn) [Gatifloxacin]
0.13 to 2.0 µg/mL,0.25 µg/mL,0.5 µg/mL,,C[C@H]1COc2c(N3CCN(C)CC3)c(F)cc3c(=O)c(C(=O)O)cn1c23 [Levofloxacin]
0.13 to 2.0 µg/mL,0.25 µg/mL,0.5 µg/mL,,COc1c(N2C[C@@H]3CCCN[C@@H]3C2)c(F)cc2c(=O)c(C(=O)O)cn(C3CC3)c12 [Moxifloxacin]

# More lines, now with the values behind:
Structure (SMILES),MIC Range (H. pylori),MIC50 (H. pylori),MIC90 (H. pylori),MIC (H. pylori ATCC 43504)
CC1(C)S[C@@H]2[C@H](NC(=O)[C@H](N)c3ccc(O)cc3)C(=O)N2[C@H]1C(=O)O [amoxycillin],,,,0.06 µg/mL
Cc1ncc([N+](=O)[O-])n1CCO [metronidazole],,,,256 µg/mL
CN(C)[C@@H]1C(O)=C(C(N)=O)C(=O)[C@@]2(O)C(O)=C3C(=O)c4c(O)cccc4[C@@](C)(O)[C@H]3C[C@@H]12 [tetracycline],,,,1 µg/mL
